# Measurements from the supplement of paper PMC10307832.
# Tests used:
# Assay in all cases: relative viability (nuclei count vs DMSO), 5 days (fraction); higher = more cells survive
# BMX-IN-1 + Lapatinib = compound: C=CC(=O)Nc1cc(-n2c(=O)ccc3cnc4ccc(-c5ccc(NS(C)(=O)=O)cc5)cc4c32)ccc1C [BMX-IN-1] + CS(=O)(=O)CCNCc1ccc(-c2ccc3ncnc(Nc4ccc(OCc5cccc(F)c5)c(Cl)c4)c3c2)o1 [Lapatinib] (partner 2 µM)
# How it was run: (§1)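 Values are medians from duplicate plates. Each reflects relative viability, defined as the nuclei count of treated wells over that of vehicle wells. Lung cancer cell lines in 1536-well plates were pin-tool dosed one day after seeding with one drug alone or with a fixed anchor-drug dose plus five library-drug doses (not always all listed) in √10 steps, then fixed, stained and imaged at 4× after 5 days.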
# Ibrutinib + AZD7762 = compound: C=CC(=O)N1CCC[C@@H](n2nc(-c3ccc(Oc4ccccc4)cc3)c3c(N)ncnc32)C1 [Ibrutinib] + NC(=O)Nc1cc(-c2cccc(F)c2)sc1C(=O)N[C@H]1CCCNC1 [AZD7762] (partner 0.2 µM)
# How it was run: as §1
# Ibrutinib + Luminespib = compound: C=CC(=O)N1CCC[C@@H](n2nc(-c3ccc(Oc4ccccc4)cc3)c3c(N)ncnc32)C1 [Ibrutinib] + CCNC(=O)c1noc(-c2cc(C(C)C)c(O)cc2O)c1-c1ccc(CN2CCOCC2)cc1 [Luminespib] (partner 0.01 µM)
# How it was run: as §1
# Ibrutinib + Crizotinib = compound: C=CC(=O)N1CCC[C@@H](n2nc(-c3ccc(Oc4ccccc4)cc3)c3c(N)ncnc32)C1 [Ibrutinib] + C[C@@H](Oc1cc(-c2cnn(C3CCNCC3)c2)cnc1N)c1c(Cl)ccc(F)c1Cl [Crizotinib] (partner 1 µM)
# How it was run: as §1
Cell Line,relative viability (BMX-IN-1 + Lapatinib; first compound 0.02 µM),relative viability (BMX-IN-1 + Lapatinib; first compound 0.2 µM),relative viability (BMX-IN-1 + Lapatinib; first compound 0.6325 µM),relative viability (BMX-IN-1 + Lapatinib; first compound 2 µM),relative viability (Ibrutinib + AZD7762; first compound 0.005 µM),relative viability (Ibrutinib + AZD7762; first compound 0.01581 µM),relative viability (Ibrutinib + AZD7762; first compound 0.05 µM),relative viability (Ibrutinib + AZD7762; first compound 0.1581 µM),relative viability (Ibrutinib + AZD7762; first compound 0.5 µM),relative viability (Ibrutinib + Luminespib; first compound 0.005 µM),relative viability (Ibrutinib + Luminespib; first compound 0.01581 µM),relative viability (Ibrutinib + Luminespib; first compound 0.05 µM),relative viability (Ibrutinib + Luminespib; first compound 0.1581 µM),relative viability (Ibrutinib + Luminespib; first compound 0.5 µM),relative viability (Ibrutinib + Crizotinib; first compound 0.005 µM),relative viability (Ibrutinib + Crizotinib; first compound 0.01581 µM),relative viability (Ibrutinib + Crizotinib; first compound 0.05 µM),relative viability (Ibrutinib + Crizotinib; first compound 0.1581 µM),relative viability (Ibrutinib + Crizotinib; first compound 0.5 µM)
HARA,0.997,0.842,1.01,0.69,0.495,0.449,0.602,0.318,0.408,0.975,0.748,0.548,0.746,0.324,1.16,0.913,1.03,1.08,0.883
HCC-15,0.933,0.955,0.985,0.984,1.33,1.25,1.19,1.25,1.4,0.362,0.278,0.488,0.308,0.243,0.889,0.785,0.873,0.828,0.837
HCC-44,1.07,1.28,1.22,1.11,1.11,,,,1.07,1.11,1.02,0.977,,1.16,0.813,0.782,0.801,0.866,0.743
HCC-827,0.189,0.203,0.193,0.206,0.157,0.193,0.323,0.167,0.12,0.657,0.355,0.589,0.673,0.212,0.89,0.923,0.927,0.94,0.184
HOP-62,1.05,1.16,0.955,1.04,0.53,0.662,0.651,0.867,0.626,,0.881,0.958,0.935,0.918,0.988,0.947,1,0.948,
LC-2-ad,1.12,1.12,1.09,1.05,0.905,0.801,0.861,0.786,0.599,1.06,1.01,1.14,1.13,,,0.449,0.546,0.476,0.419
LCLC-97TM1,0.862,1.24,1.41,0.816,0.276,0.326,0.317,0.268,0.219,0.795,0.656,0.798,0.867,0.735,0.365,0.369,,0.553,0.313
LK-2,1.1,1.37,0.68,0.924,0.31,0.513,0.438,0.405,0.25,,0.183,0.176,0.166,0.164,,0.355,0.216,0.275,0.252
LOU-NH91,,0.792,0.819,0.819,0.684,0.701,0.717,0.801,0.754,0.333,0.346,0.267,0.294,0.309,0.697,0.557,0.666,0.738,0.526
LU99A,1.15,1.04,0.981,0.913,0.258,0.357,0.338,0.438,0.288,0.191,0.24,0.285,0.249,0.248,0.522,0.605,0.619,0.644,0.644
LXF-289,0.982,1.01,0.957,0.983,1.22,1.07,1.06,1.1,1.15,0.685,0.673,0.722,0.692,0.643,0.948,0.804,0.807,0.784,0.791
NCI-H23,1.04,1.24,1.01,1,0.263,0.237,0.234,0.218,0.283,,0.22,,,0.248,0.539,0.528,0.527,0.592,0.466
NCI-H322M,0.626,0.591,0.563,0.578,0.432,0.527,0.514,0.486,0.502,0.648,0.726,0.785,0.752,0.473,0.964,0.848,0.887,1.03,0.608
NCI-H358,0.48,0.431,0.4,0.412,0.404,0.349,0.282,0.515,0.29,0.366,0.253,0.306,0.267,0.174,0.706,0.45,0.401,0.682,0.303
NCI-H460,,1.36,1.75,1.1,0.634,0.563,0.646,0.622,0.659,0.0343,0.0329,0.0328,0.0586,0.0349,1.11,0.614,1.04,,1.12
NCI-H596,0.987,1.13,1.12,0.935,0.996,1.15,1.32,,0.928,,0.894,0.77,0.959,0.805,0.974,0.955,0.903,0.803,0.747
NCI-H647,1.3,0.957,1.43,0.949,0.413,0.534,0.529,0.3,0.497,,0.14,0.239,0.181,0.196,1.03,1.07,1.13,1.06,0.993
NCI-H650,0.862,1.11,0.982,0.858,1.02,0.858,0.94,1.15,1.02,0.775,0.757,0.737,0.885,0.949,,0.656,,0.863,0.805
NCI-H727,0.841,1.01,0.887,0.939,0.404,0.664,0.524,0.416,0.555,,0.597,0.282,,0.516,0.74,0.616,0.71,0.868,0.617
NCI-H838,1.3,1.16,1.2,1.04,0.739,0.876,0.985,0.946,0.943,0.288,,0.266,0.326,0.325,0.881,0.842,0.979,0.873,0.793
NCI-H1355,1.14,1.09,1.08,0.982,,0.768,0.846,0.9,0.72,0.55,0.648,0.715,0.858,0.517,,0.957,0.971,1.15,0.827
NCI-H1437,0.928,0.867,0.907,0.915,1.12,1.12,1.08,1.08,1.16,1.13,1.16,1.11,1.14,1.12,0.848,0.874,0.901,1.02,0.916
NCI-H1651,1,0.967,1.17,0.834,0.306,0.459,0.452,0.464,0.48,0.847,1.05,0.93,0.876,0.921,0.952,0.871,0.819,0.818,0.88
NCI-H1666,0.772,0.626,0.663,0.444,0.803,0.777,0.843,0.892,0.783,0.951,0.975,0.956,1.08,0.784,1.01,0.864,0.904,0.932,0.697
NCI-H1734,1.21,1.66,1.1,1.05,0.481,0.518,0.449,0.557,0.526,0.208,0.189,0.235,0.188,0.175,0.587,0.689,0.675,0.761,0.67
NCI-H1755,1.2,1.02,1.09,1.02,0.45,0.455,0.454,0.409,0.453,0.318,0.617,0.55,0.313,0.531,0.832,,0.909,0.909,0.852
NCI-H1792,0.834,1.04,0.937,0.922,,0.693,0.6,0.636,0.515,,0.486,0.485,0.364,0.367,0.979,0.989,1.13,0.654,0.961
NCI-H1915,1.16,1.05,1.13,0.968,0.76,0.638,0.625,0.741,0.667,0.824,0.85,0.819,0.857,0.69,,0.858,0.92,0.921,0.897
NCI-H1944,0.986,0.866,0.919,0.921,0.388,0.455,0.409,0.448,0.422,0.649,0.57,0.714,0.669,0.536,0.99,0.88,0.963,,0.782
